Assays:
NB12 (Neuroblastoma) [1] = assay: combination Emax (second highest fraction inhibited in the dose matrix, 72 h); higher = more inhibition; extreme values may be limits of the assay
Summary of the method: (§1)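 Bliss excess equals the observed combination effect minus the expected value EA + EB − EA·EB, where EA and EB are the effects of each agent alone. Combination Emax is the second-highest inhibition within the matrix. Inhibition was scaled from CellTiter-Glo 2.0 luminescence, with 0 set by vehicle wells and 1 by blank wells, after 72 hours of two-drug dosing of cells plated in 1536-well plates.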

SK-MEL-2 (Melanoma) [2] = assay: as above
Summary of the method: as §1

SF539 (Glioblastoma) = assay: as above
Summary of the method: as §1

[3] = tested on: OAW-42 (Ovarian Carcinoma); assay: as above
Summary of the method: as §1

[4] = tested on: NCI-H23 (Lung Adenocarcinoma); assay: as above
Summary of the method: as §1

[5] = tested on: LK-2 (Squamous Cell Lung Carcinoma); assay: as above
Summary of the method: as §1

GB-1 (Glioblastoma) = assay: as above
Summary of the method: as §1

[6] = tested on: PANC-03-27 (Pancreatic Carcinoma); assay: as above
Summary of the method: as §1

NB12 (Neuroblastoma) [7] = assay: Bliss excess, mean over the matrix (fraction); higher = more synergy
Summary of the method: as §1

SK-MEL-2 (Melanoma) [8] = assay: as above
Summary of the method: as §1

| Compound | combination Emax (NB12 (Neuroblastoma) [1]) | combination Emax (SK-MEL-2 (Melanoma) [2]) | combination Emax (SF539 (Glioblastoma)) | combination Emax [3] | combination Emax [4] | combination Emax [5] | combination Emax (GB-1 (Glioblastoma)) | combination Emax [6] | Bliss excess (NB12 (Neuroblastoma) [7]) | Bliss excess (SK-MEL-2 (Melanoma) [8]) |
| --- | --- | --- | --- | --- | --- | --- | --- | --- | --- | --- |
| NC1(C(=O)N[C@@H](CCO)c2ccc(Cl)cc2)CCN(c2ncnc3[nH]ccc23)CC1 [Capivasertib] + C[C@@H]1COCCN1C2=NC(=NC(=C2)C3(CC3)[S@](=N)(=O)C)C4=C5C=CNC5=NC=C4 [AZD6738] (first compound max 10 µM, 7x7, partner max 10 µM) | 0.738 | 0.152 | 0.879 | 0.644 | 0.87 | 0.675 | 0.563 | 0.521 | -0.0449 | -0.0335 |
| NC1(C(=O)N[C@@H](CCO)c2ccc(Cl)cc2)CCN(c2ncnc3[nH]ccc23)CC1 [Capivasertib] + Cn1cnc2c(F)c(Nc3ccc(Br)cc3Cl)c(C(=O)NOCCO)cc21 [Selumetinib] (first compound max 10 µM, 7x7, partner max 10 µM) | 0.504 | 0.843 | 0.68 | 0.548 | 0.454 | 0.467 | 0.588 | 0.517 | 0.0154 | 0.0662 |
| Cc1nc(Nc2ncc(C(=O)Nc3c(C)cccc3Cl)s2)cc(N2CCN(CCO)CC2)n1 [Dasatinib] + CC(=O)Nc1cccc(-n2c(=O)n(C3CC3)c(=O)c3c(Nc4ccc(I)cc4F)n(C)c(=O)c(C)c32)c1 [Trametinib] (first compound max 2 µM, 7x7, partner max 1 µM) | 0.266 | 0.94 | 0.602 | 0.722 | 0.765 | 0.63 | 0.701 | 0.713 | 0.0319 | -0.0571 |
| COc1cc2ncnc(Nc3ccc(F)c(Cl)c3)c2cc1OCCCN1CCOCC1 [Gefitinib] + CC(C)n1c(=O)n(C)c2cnc3cc(F)c(-c4ccc(OCCCN5CCCCC5)nc4)cc3c21 [AZD1390] (first compound max 10 µM, 7x7, partner max 0.3 µM) | 0.139 | 0.169 | 0.143 | 0.107 | 0.107 | 0.2 | 0.0404 | 0.373 | -0.0668 | -0.0348 |
| CS(=O)(=O)CCNCc1ccc(-c2ccc3ncnc(Nc4ccc(OCc5cccc(F)c5)c(Cl)c4)c3c2)o1 [Lapatinib] + C[C@@H](Oc1cc(-c2cnn(C3CCNCC3)c2)cnc1N)c1c(Cl)ccc(F)c1Cl [Crizotinib] (first compound max 10 µM, 7x7, partner max 10 µM) | 0.843 | 0.62 | 0.937 | 0.732 | 0.645 | 0.888 | 0.843 | 0.835 | -0.0622 | -0.0232 |
| CC(=O)c1c(C)c2cnc(Nc3ccc(N4CCNCC4)cn3)nc2n(C2CCCC2)c1=O [Palbociclib] + CC1(C)CCC(CN2CCN(c3ccc(C(=O)NS(=O)(=O)c4ccc(NCC5CCOCC5)c([N+](=O)[O-])c4)c(Oc4cnc5[nH]ccc5c4)c3)CC2)=C(c2ccc(Cl)cc2)C1 [Venetoclax] (first compound max 10 µM, 7x7, partner max 1 µM) | 0.614 | 0.11 | 0.262 | 0.105 | 0.168 | 0.102 | 0.15 | 0.131 | 0.0237 | -0.0492 |
| CC(=O)c1c(C)c2cnc(Nc3ccc(N4CCNCC4)cn3)nc2n(C2CCCC2)c1=O [Palbociclib] + Cc1c2c(nn1C)CSCc1cc(n(C)n1)CSc1cc(c3ccccc3c1)OCCCc1c(C(=O)O)n(C)c3c-2c(Cl)ccc13 [AZD5991] (first compound max 10 µM, 7x7, partner max 1 µM) | 0.357 | 0.905 | 0.293 | 0.223 | 0.934 | 0.33 | 0.238 | 0.202 | 0.0159 | -0.045 |
| CC(=O)c1c(C)c2cnc(Nc3ccc(N4CCNCC4)cn3)nc2n(C2CCCC2)c1=O [Palbociclib] + Cn1cnc2c(F)c(Nc3ccc(Br)cc3Cl)c(C(=O)NOCCO)cc21 [Selumetinib] (first compound max 10 µM, 7x7, partner max 10 µM) | 0.276 | 0.805 | 0.336 | 0.168 | 0.387 | 0.5 | 0.275 | 0.414 | 0.0177 | 0.0374 |
| C[C@@H](c1ccc2nccn2c1)n1nnc2ncc(-c3cnn(C)c3)nc21 [Savolitinib] + CC1(C)CCC(CN2CCN(c3ccc(C(=O)NS(=O)(=O)c4ccc(NCC5CCOCC5)c([N+](=O)[O-])c4)c(Oc4cnc5[nH]ccc5c4)c3)CC2)=C(c2ccc(Cl)cc2)C1 [Venetoclax] (first compound max 1 µM, 7x7, partner max 1 µM) | 0.641 | 0.14 | 0.161 | 0.188 | 0.205 | 0.165 | 0.109 | 0.167 | -0.0062 | -0.0295 |
| C[C@@H](c1ccc2nccn2c1)n1nnc2ncc(-c3cnn(C)c3)nc21 [Savolitinib] + Cc1c2c(nn1C)CSCc1cc(n(C)n1)CSc1cc(c3ccccc3c1)OCCCc1c(C(=O)O)n(C)c3c-2c(Cl)ccc13 [AZD5991] (first compound max 1 µM, 7x7, partner max 1 µM) | 0.219 | 0.901 | 0.21 | 0.21 | 0.915 | 0.202 | 0.117 | 0.0558 | -0.0075 | -0.023 |
| Cn1cnc2c(F)c(Nc3ccc(Br)cc3Cl)c(C(=O)NOCCO)cc21 [Selumetinib] + C=CCn1c(=O)c2cnc(Nc3ccc(N4CCN(C)CC4)cc3)nc2n1-c1cccc(C(C)(C)O)n1 [AZD1775] (first compound max 10 µM, partner max 1 µM) | 0.674 | 0.831 | 0.972 | 0.513 | 0.915 | 0.931 | 0.321 | 0.815 | -0.0517 | 0.0533 |
| Cn1cnc2c(F)c(Nc3ccc(Br)cc3Cl)c(C(=O)NOCCO)cc21 [Selumetinib] + CC(C)n1c(=O)n(C)c2cnc3cc(F)c(-c4ccc(OCCCN5CCCCC5)nc4)cc3c21 [AZD1390] (first compound max 10 µM, 7x7, partner max 0.3 µM) | 0.106 | 0.739 | 0.359 | 0.192 | 0.339 | 0.49 | 0.0241 | 0.42 | -0.0215 | -0.0602 |
| Cn1cnc2c(F)c(Nc3ccc(Br)cc3Cl)c(C(=O)NOCCO)cc21 [Selumetinib] + CCN(CCO)CCCOc1ccc2c(Nc3cc(CC(=O)Nc4cccc(F)c4)[nH]n3)ncnc2c1 [AZD2811] (first compound max 10 µM, 7x7, partner max 1 µM) | 0.607 | 0.722 | 0.501 | 0.194 | 0.484 | 0.795 | 0.117 | 0.534 | -0.0881 | -0.0538 |
| Cn1cnc2c(F)c(Nc3ccc(Br)cc3Cl)c(C(=O)NOCCO)cc21 [Selumetinib] + C[C@@H]1COCCN1C2=NC(=NC(=C2)C3(CC3)[S@](=N)(=O)C)C4=C5C=CNC5=NC=C4 [AZD6738] (first compound max 10 µM, 7x7, partner max 10 µM) | 0.39 | 0.806 | 0.855 | 0.507 | 0.874 | 0.39 | 0.337 | 0.599 | -0.0545 | -0.0161 |

— the supplement of paper PMC11061612
